Data published in patent US9896457B2, “Microbial product having antifungal activity” (OP BIO FACTORY CO., LTD., priority 2013, dated 2018).

Assays:
Candida spp. = test: Antifungal agent sensitivity test, MIC by trace liquid dilution method (yeast-like fungi FP 'Eiken'); assay type: cell-based; details: numeric MIC (μg/mL) only in FIG. 2
Protocol: (§1) Minimum inhibitory concentration (MIC) was measured by the trace liquid dilution method. The measurement was performed using yeast-like fungi FP ‘Eiken’ (Eiken Chemical Co., Ltd.) and according to the manual of the product.

Aspergillus spp. = test: as above; assay type: cell-based; details: numeric MIC (μg/mL) only in FIG. 2
Protocol: as §1

In the case of `CC=C(Cc1ccccc1)C12CC(O)CCN1O2` (centres unmarked), the “antifungal activity (MIC), result in words” value (Candida spp.) is reported as “good activity” and the “antifungal activity (MIC), result in words” value (Aspergillus spp.) is reported as “good activity”.
